Assay results taken from patent publication US20030073850A1, “4-Imidazole derivatives of benzyl and restricted benzyl sulfonamides, sulfamides, ureas, carbamates, and amides and their use” (priority 1998, published 2003).

Columns and labels:
α1B (rat spleen) = biological target: T1, α1B (rat spleen) (Rattus norvegicus, UniProt P15823); assay: Agonist tissue response, contraction of rat spleen; format: biochemical; conditions: read-out: Agonist Tissue Response (pD2) α1B (rat spleen) (converted)
T1 construct: α1B (rat spleen) and α1D (rat aorta) receptors; from tissue; host or cells: rat spleen
T1 sequence (P15823 1-515): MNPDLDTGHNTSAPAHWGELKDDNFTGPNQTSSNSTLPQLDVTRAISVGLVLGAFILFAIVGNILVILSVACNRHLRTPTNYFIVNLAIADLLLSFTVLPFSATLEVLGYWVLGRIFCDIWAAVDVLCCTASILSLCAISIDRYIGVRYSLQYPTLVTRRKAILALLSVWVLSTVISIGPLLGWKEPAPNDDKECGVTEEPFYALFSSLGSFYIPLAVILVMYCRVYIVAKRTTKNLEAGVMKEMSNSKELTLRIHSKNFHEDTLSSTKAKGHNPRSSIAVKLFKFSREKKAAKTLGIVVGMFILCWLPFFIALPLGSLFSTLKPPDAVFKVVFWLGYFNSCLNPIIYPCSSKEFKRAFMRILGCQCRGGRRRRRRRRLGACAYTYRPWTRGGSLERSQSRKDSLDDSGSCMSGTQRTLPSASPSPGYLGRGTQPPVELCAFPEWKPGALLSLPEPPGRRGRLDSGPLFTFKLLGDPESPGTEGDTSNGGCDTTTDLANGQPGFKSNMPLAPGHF

[1] = biological target: T2, α1b (hamster receptor expressed in mouse fibroblasts) (Mesocricetus auratus, UniProt P18841); assay: Radioligand binding, [3H]-prazosin, α1b
T2 construct: expressed in transfected cells; host or cells: mouse fibroblasts
T2 sequence (P18841 1-515): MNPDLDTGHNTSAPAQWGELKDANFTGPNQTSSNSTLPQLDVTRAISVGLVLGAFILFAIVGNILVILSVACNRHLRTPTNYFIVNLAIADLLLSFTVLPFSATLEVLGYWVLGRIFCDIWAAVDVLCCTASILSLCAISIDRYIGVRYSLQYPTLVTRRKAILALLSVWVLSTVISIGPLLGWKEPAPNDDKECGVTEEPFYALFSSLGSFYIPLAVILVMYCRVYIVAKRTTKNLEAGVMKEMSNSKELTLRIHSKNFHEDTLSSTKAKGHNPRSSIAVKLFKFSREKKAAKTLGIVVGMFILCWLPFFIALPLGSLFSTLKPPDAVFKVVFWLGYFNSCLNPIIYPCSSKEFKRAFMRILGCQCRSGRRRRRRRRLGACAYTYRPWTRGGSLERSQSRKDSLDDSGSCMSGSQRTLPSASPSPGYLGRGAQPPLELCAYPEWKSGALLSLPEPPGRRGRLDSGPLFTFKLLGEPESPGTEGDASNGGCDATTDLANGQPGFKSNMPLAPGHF
In short: (§1)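 [3H]-prazosin radioligand displacement; α1A from rat submaxillary gland tissue, α1b hamster and α1d rat receptors each expressed in mouse fibroblasts.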

[2] = biological target: T3, α1d (rat receptor expressed in mouse fibroblasts) (Rattus norvegicus, UniProt P23944); assay: Radioligand binding, [3H]-prazosin, α1d
T3 construct: expressed in transfected cells; host or cells: mouse fibroblasts
T3 sequence (P23944 1-561): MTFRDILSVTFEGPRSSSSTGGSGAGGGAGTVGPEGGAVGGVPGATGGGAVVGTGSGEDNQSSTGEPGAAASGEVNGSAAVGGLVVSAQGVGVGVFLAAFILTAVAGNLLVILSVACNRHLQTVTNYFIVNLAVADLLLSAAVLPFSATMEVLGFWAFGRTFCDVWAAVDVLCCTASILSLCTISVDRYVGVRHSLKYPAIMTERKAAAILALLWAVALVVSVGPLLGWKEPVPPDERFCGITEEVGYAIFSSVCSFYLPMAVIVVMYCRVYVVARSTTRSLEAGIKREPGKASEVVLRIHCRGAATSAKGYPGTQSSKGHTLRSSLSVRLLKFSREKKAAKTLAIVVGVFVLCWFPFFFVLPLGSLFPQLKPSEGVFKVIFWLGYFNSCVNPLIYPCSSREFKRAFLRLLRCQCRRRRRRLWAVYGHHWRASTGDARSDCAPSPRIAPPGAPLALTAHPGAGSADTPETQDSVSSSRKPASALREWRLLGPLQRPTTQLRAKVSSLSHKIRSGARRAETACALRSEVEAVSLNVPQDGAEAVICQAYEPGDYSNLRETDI
In short: as §1

anesthetized dogs = assay: Urethral pressure profile in anesthetized dogs; format: in vivo, dog; conditions: increasing iv doses, FIG. 1
Experimental: Dogs instrumented and anesthetized as decribed above were placed in left lateral recumbency and a dual pressure sensor catheter (SPC-771, Millar Instruments, Houston, Tex.) was inserted into the urethra and advanced into the bladder. The proximal pressure sensor was interfaced to a M12 computerized data acquisition system for the measurement of lower urinary tract pressures. At a resting intravesical pressure of approximately 5 cm of H2O, urethral pressure was measured from the sensor as the catheter was withdrawn using a modified syringe pump (Model 22, Harvard Apparatus, South Natick, Mass.) at its maximal rate of 0.83 mm/sec. Measurement from the proximal sensor allowed easy reinsertion as the distal 5 cm of the catheter remains in the urethra after the total profile has been obtained. Three resting urethral pressure profiles were obtained at 5 minute intervals before dosing, then a single profile was initiated 30 sec after each increasing iv dose during the time corresponding to the maximum arterial pressure effects of that dose. The increase in arterial pressure seen after each agonist dose was allowed to return to baseline before the next dose was given.

CCS(=O)(=O)Nc1cccc(C(=C2CCCCC2)c2c[nH]cn2)c1 [Example 56]
EC50 (α1B (rat spleen)): 186000 nM
Ki [1]: 16.1 nM
Ki [2]: 2.46 nM

CS(=O)(=O)Nc1cccc2c1CCCC2c1c[nH]cn1.Cl (centres unmarked) [Example 8, N-[5-(1H-imidazol-4-yl)-5,6,7,8-tetrahydro-1-naphthalenyl]methanesulfonamide, Hydrochloride]
melting point: 113 to 114 °C
urethral pressure profile (anesthetized dogs): corresponding increases in the urethral pressure
